# Measured values from US20250025500A1, “PHOSPHATASE INHIBITORS AS NK CELLS MODULATORS FOR THE TREATMENT OF CANCER” (Kanyr Pharma Inc., priority 2021, published 2025).
# How the values were obtained:
# Type in all cases: cell-based, Human
# [1] = system: JAK/STAT signaling in NK-92 cells; test: JAK/STAT signaling Western blot and IL-2 stimulation assay in NK-92; settings: regular cell culture, inhibitor titration, three days
# Experimental: (§1) Total cell lysate was prepared with modified RIPA buffer (1M Tris-HCl (pH 7.5), 5M NaCl, 0.25% sodium deoxycholate, 10% NP-40 and 10 mM sodium fluoride) supplemented with ethylenediaminetetraacetic acid (EDTA)-free protease inhibitor (Roche™) and 2 mM sodium orthovanadate (Sigma-Aldrich™). Protein levels were quantified by bicinchoninic acid (BCA) assay. Protein lysate was separated by 10% SDS-PAGE and Western analysis was performed using primary antibodies listed in the tables below followed with horseradish peroxidase (HRP, 1:10,000, Jackson ImmunoResearch™) conjugated secondary antibodies.
# For cytokine stimulation assay, NK-92 cells were pre-treated with L598 (30 μM) or vehicle control for three days. Before IL-2 stimulation, NK-92 cells were washed once with serum depleted cell media (no IL-2) and were starved for six hours in presence of L598 or vehicle control. After starvation, NK-92 cells were stimulated with IL-2 across a gradient concentration ranging from 0 to 90 IU/mL for 15 mins at 37° C. After incubation, cells were directly lysed with 2× concentrated TNE buffer and then boiled in 1× Laemmli Buffer to prepare cell lysates. Two independent experiments were performed.
# NK-92 cells = test: Lytic granule protein expression in NK-92 (flow cytometry, Western blot)
# Experimental: as §1
# NK-92 cells pre-treated with L598 (30 μM) or vehicle control were stimulated with K-562 tumor target cells [effector: target (E:T) at 1:1] or PMA/lonomycin (1 μg/mL each) or no-stimulation control with K-562 complete media, respectively. Anti-CD107a or LAMP-1 antibody (1:100, PE/Cy7 conjugated, clone H4A3, from BioLegend®) was added to cells at the start of degranulation assay. Golgi stop (containing Monensin, 1 μM) and Golgi plug (containing Brefeldin A, 4 μg/mL) were added to cells one hour after degranulation assay started and were kept until the end of the 6-hour-degranulation assay. Intracellular staining of GrB (1:40, PE conjugated, clone QA18A28, from BioLegend®) and PRF (1:40, FITC conjugated, clone B-D48, from BioLegend®) were performed with the Fixation/Permeabilization Solution Kit (BD® Biosciences) according to the manufacture's protocol. Cells were stained with fixable viability dye (1:2000) for 20 mins on ice and in dark, and blocked with FcBlock (1:20, diluted in 1× Perm/Wash buffer, Human truStain FcX from BioLegend®) for 5 mins at room temperature and in dark before intracellular staining. Cell gating and percentage of population quantification was based on no-stimulation control. For kinetics of degranulation assay, measurements were taken over three hours at 15 mins, 30 mins, 60 mins, 120 mins and 180 mins, with L598 (30 μM, three days) treated group and vehicle control group under the condition of tumor target cell K-562 stimulation (E: T at 1:1) or no stimulation. Intracellular cytolytic granule contents GrA, GrB and PRF were measured as mentioned previously.
# [2] = system: NK-92 cells against Reh cells; test: NK-92 cytolytic assay against NK resistant Reh target cells; settings: 30 μM three days, IL-2 100 IU/mL, 3 h assay
# Experimental: Human NK cell line NK-92 was purchased from American Type Culture Collection (ATCC) and cultured in α-MEM Essential Medium (no ribonucleoside and deoxyribonucleoside) supplemented with 0.2 mM Myo-inositol, 0.02 mM Folic Acid, 0.1 mM β-mercaptoethanol, 1% of Non-essential Amino Acids, 1×L-Glutamax, 1% of Penicillin/Streptomycin, 12.5% of heat-inactivated Horse, and 12.5% of heat-inactivated Characterized Fetal Bovine Serum or FBS. The media was supplemented freshly with 200 IU/mL of IL-2 upon cell thawing for one passage and 100 IU/mL of IL-2 for cell expansion. Human tumor cell lines K-562 and Reh were purchased from ATCC and were cultured in RPM11640 Medium supplemented with 1% of Penicillin/Streptomycin and 10% of heat inactivated FBS. HEK293T/17 cells and HCT116 cells were cultured in Dulbecco's Modified Eagle's Medium (DMEM) High Glucose Medium supplemented with 1% of Penicillin/Streptomycin and 10% of FBS. All cell lines were maintained in 5% CO2, 37° C. incubator, except that NK-92 were maintained in 6.5% CO2 incubator at 37° C. […]
# NK-92 anti-tumor cytolysis function was assessed by flow cytometry-based analysis. […] Flow cytometry sample acquisition was performed with BDO LSRFortessa™ with a UV laser at Flow Cytometry Core Facility, McGill University, and data was analyzed with FlowJo™ 10.7.1 and summarized with Prism™ 9 (GraphPad™). […]
# [3] = system: NK-92 cells against K-562 cells; test: NK-92 cytolytic assay against K-562 tumor target cells (flow cytometry); settings: three days
# Experimental: Human NK cell line NK-92 was purchased from American Type Culture Collection (ATCC) and cultured in α-MEM Essential Medium (no ribonucleoside and deoxyribonucleoside) supplemented with 0.2 mM Myo-inositol, 0.02 mM Folic Acid, 0.1 mM β-mercaptoethanol, 1% of Non-essential Amino Acids, 1×L-Glutamax, 1% of Penicillin/Streptomycin, 12.5% of heat-inactivated Horse, and 12.5% of heat-inactivated Characterized Fetal Bovine Serum or FBS. The media was supplemented freshly with 200 IU/mL of IL-2 upon cell thawing for one passage and 100 IU/mL of IL-2 for cell expansion. Human tumor cell lines K-562 and Reh were purchased from ATCC and were cultured in RPM11640 Medium supplemented with 1% of Penicillin/Streptomycin and 10% of heat inactivated FBS. HEK293T/17 cells and HCT116 cells were cultured in Dulbecco's Modified Eagle's Medium (DMEM) High Glucose Medium supplemented with 1% of Penicillin/Streptomycin and 10% of FBS. All cell lines were maintained in 5% CO2, 37° C. incubator, except that NK-92 were maintained in 6.5% CO2 incubator at 37° C. All cell lines were maintained below 30 passages and tested regularly for mycoplasma infection using PCR.
# NK-92 anti-tumor cytolysis function was assessed by flow cytometry-based analysis. Tumor target cells K-562 and Reh were labelled with cell tracker CFSE ([…]) or CMRA (5 μM) according to manufacturer's protocol at a maximum of one day before cytolysis experiment. On the experiment day, labelled tumor target cells were washed once with PBS and resuspend to desired cell concentration in complete cell media. NK-92 cells were washed and resuspended in complete media without cytokines to desired cell concentration. NK-92 cells and tumor target cells were plated at various effector: target (E:T) ratios with basal cell numbers at 50,000 cells per well in round-bottom 96-well plate and were co-cultured for 3 hours in 5% CO2, 37° C. incubator. After co-culture, cells were washed once with ice-cold PBS and stained with fixable viability dyes: Aqua (Invitrogen™) or UV Blue (Invitrogen™) or eFluor 780 (eBioscience Invitrogen™) at 1:2000 in dark for 20 mins at 4° C. Stained cells were washed twice with ice cold PBS and were fixed with 1% Paraformaldehyde (PFA) for 1 hour or 2% PFA for 30 mins in dark at 4° C. Flow cytometry sample acquisition was performed with BDO LSRFortessa™ with a UV laser at Flow Cytometry Core Facility, McGill University, and data was analyzed with FlowJo™ 10.7.1 and summarized with Prism™ 9 (GraphPad™). Calculation for % of specific cytolysis was followed by the equation: […]
molecule,measurement,setting,value
KQ791,phosphorylation of STAT2 and STAT6,[1],relatively stable
same,"phosphorylation of STAT1, STAT3, STAT4 and STAT5",[1]; dosage dependent,increased phosphorylation
same,protein expression of perforin and granzyme B,"NK-92 cells; gradual increasing concentration, three days",upregulated in a dosage dependent manner
same,granzyme A protein expression,NK-92 cells; with or without inhibitor treatment,relatively stable
same,NK-92 cytolysis towards NK resistant target cells Reh,[2],had no effect
same,tumor cytolysis by NK-92 against K-562 with inhibitor titration,"[3]; dosage increased up to 90 μM, various E:T ratios",gradual increasing of tumor cytolysis
TGF-β1: immune regulatory cytokine added to NK-92 culture,effect of added TGF-β1 on NK-92 cytolysis against K-562,"[3]; TGF-β 10 ng/mL, IL-2 media",significantly reduced
"IL-4: Th2 cytokine IL-4 added to NK-92 culture (protein, UniProt P05112 25-153, looked up) Interleukin-4: HKCDITLQEIIKTLNSLTEQKTLCTELTVTDIFAASKNTTEKETFCRAATVLRQFYSHHEKDTRCLGATAQQFHRHKQLIRFLKRLDRNLWGLAGLNSCPVKEANQSTLENFLERLKTIMREKYSKCSS",effect of added IL-4 on NK-92 cytolysis against K-562,"[3]; IL-4 10 ng/mL, IL-2 media, with or without L598",did not reduce nor improve
